Results reported in patent publication EP4786470A1, “METHOD FOR S[…]-CIT LINEAR PRECURSOR WITH HIGH PURITY, AND METHOD FOR PREPARING [18F]FP-CIT BY USING SAME” (The Asan Foundation, priority 2023, dated 2025).
Where “and” joins values, the source holds several entries; their conditions need not be identical. Equal values may be shown once.

Assays:
[1] = cited from earlier work
[2] = Storage stability of FP-CIT linear precursor in storage solvent (purity over 12 months by HPLC analysis); type: physicochemical
Experimental: HPLC analysis was carried out using the same experimental method and analytic conditions as in Example 1-1, except that the storage temperature was -20°C. […] The purity of the FP-CIT linear precursor over time is summarized in FIG. 4 and the following Table 3.
HPLC analysis was carried out using the same experimental method and analytic conditions as in Example 1-1, except that the storage concentration was 8 mg/mL. […] The purity of the FP-CIT linear precursor over time is summarized in FIG. 5 and the following Table 4.
HPLC analysis was carried out using the same experimental method and analytic conditions as in Example 3-1, except that the storage temperature was -20°C. […] The purity of the FP-CIT linear precursor over time is summarized in FIG. 5 and the following Table 4.

## ClCCl [Dichloromethane (DCM), Dichloromethane]
[1]
  Water solubility (g/100 mL, 20°C): 1.6 g/100 mL

## CCOC(C)=O [Ethyl acetate (EA), Ethyl acetate]
[1]
  Water solubility (g/100 mL, 20°C): 8.3 g/100 mL

## COC(=O)C1C(c2ccc(I)cc2)CC2CCC1N2CCCOS(C)(=O)=O (stereo not drawn) [FP-CIT linear precursor]
[2]; CHCl3, 1 mg/mL, -20°C, 0 months (start of storage assumed 100%)
  purity of the FP-CIT linear precursor: 100.0%
[2]; CHCl3, 1 mg/mL, -20°C, 3 months
  purity of the FP-CIT linear precursor: 79.4%
[2]; CHCl3, 1 mg/mL, -20°C, 5 months
  purity of the FP-CIT linear precursor: 65% and 65.1%
[2]; CHCl3, 1 mg/mL, -20°C, 7 months
  purity of the FP-CIT linear precursor: 57.1%
[2]; CHCl3, 1 mg/mL, -20°C, 9 months
  purity of the FP-CIT linear precursor: 53.2%
[2]; CHCl3, 1 mg/mL, room temperature, 0 months (start of storage assumed 100%)
  purity of the FP-CIT linear precursor: 100.0%
[2]; CHCl3, 1 mg/mL, room temperature, 3 months
  purity of the FP-CIT linear precursor: 60.4%
[2]; CHCl3, 1 mg/mL, room temperature, 7 months
  purity of the FP-CIT linear precursor: 2.2%
[2]; CHCl3, 1 mg/mL, room temperature, 9 months
  purity of the FP-CIT linear precursor: 0.7%
[2]; DCM, 1 mg/mL, -20°C, 0 months (start of storage assumed 100%)
  purity of the FP-CIT linear precursor: 100.0%
[2]; DCM, 1 mg/mL, -20°C, 3 months
  purity of the FP-CIT linear precursor: 93.5%
[2]; DCM, 1 mg/mL, -20°C, 7 months
  purity of the FP-CIT linear precursor: 73.2%
[2]; DCM, 1 mg/mL, -20°C, 9 months
  purity of the FP-CIT linear precursor: 71.3%
[2]; DCM, 1 mg/mL, room temperature, 0 months (start of storage assumed 100%)
  purity of the FP-CIT linear precursor: 100.0%
[2]; DCM, 1 mg/mL, room temperature, 3 months
  purity of the FP-CIT linear precursor: 47.0%
[2]; DCM, 1 mg/mL, room temperature, 5 months
  purity of the FP-CIT linear precursor: 34% and 34.2%
[2]; DCM, 1 mg/mL, room temperature, 7 months
  purity of the FP-CIT linear precursor: 30.9%
[2]; DCM, 1 mg/mL, room temperature, 9 months
  purity of the FP-CIT linear precursor: 13.1%
[2]; EA, 1 mg/mL, -20°C, 0 months (start of storage assumed 100%)
  purity of the FP-CIT linear precursor: 100.0%
[2]; EA, 1 mg/mL, -20°C, 1 month
  purity of the FP-CIT linear precursor: 97.5%
[2]; EA, 1 mg/mL, -20°C, 3 months
  purity of the FP-CIT linear precursor: 97.4%
[2]; EA, 1 mg/mL, -20°C, 5 months
  purity of the FP-CIT linear precursor: 96.7%
[2]; EA, 1 mg/mL, -20°C, 7 months
  purity of the FP-CIT linear precursor: 96.4%
[2]; EA, 1 mg/mL, -20°C, 9 months
  purity of the FP-CIT linear precursor: 96.4%
[2]; EA, 1 mg/mL, room temperature, 0 months (start of storage assumed 100%)
  purity of the FP-CIT linear precursor: 100.0%
[2]; EA, 1 mg/mL, room temperature, 3 months
  purity of the FP-CIT linear precursor: 91.2%
[2]; EA, 1 mg/mL, room temperature, 7 months
  purity of the FP-CIT linear precursor: 39.8%
[2]; EA, 1 mg/mL, room temperature, 9 months
  purity of the FP-CIT linear precursor: 28.4%
[2]; EA, 8 mg/mL, -20°C, 0 months (start of storage assumed 100%)
  purity of the FP-CIT linear precursor: 100.0%
[2]; EA, 8 mg/mL, -20°C, 1 month
  purity of the FP-CIT linear precursor: 99.3%
[2]; EA, 8 mg/mL, -20°C, 3 months
  purity of the FP-CIT linear precursor: 99.0%
[2]; EA, 8 mg/mL, -20°C, 7 months
  purity of the FP-CIT linear precursor: 96.7%
[2]; EA, 8 mg/mL, -20°C, 9 months
  purity of the FP-CIT linear precursor: 96.4%
[2]; EA, 8 mg/mL, room temperature, 0 months (start of storage assumed 100%)
  purity of the FP-CIT linear precursor: 100.0%
[2]; EA, 8 mg/mL, room temperature, 3 months
  purity of the FP-CIT linear precursor: 64.3%
[2]; EA, 8 mg/mL, room temperature, 5 months
  purity of the FP-CIT linear precursor: 43% and 43.3%
[2]; EA, 8 mg/mL, room temperature, 7 months
  purity of the FP-CIT linear precursor: 16.2%
[2]; EA, 8 mg/mL, room temperature, 9 months
  purity of the FP-CIT linear precursor: 13.5%
[2]; THF, 1 mg/mL, -20°C, 0 months (start of storage assumed 100%)
  purity of the FP-CIT linear precursor: 100.0%
[2]; THF, 1 mg/mL, -20°C, 1 month
  purity of the FP-CIT linear precursor: 98.0%
[2]; THF, 1 mg/mL, -20°C, 3 months
  purity of the FP-CIT linear precursor: 96.7%
[2]; THF, 1 mg/mL, -20°C, 7 months
  purity of the FP-CIT linear precursor: 95.1%
[2]; THF, 1 mg/mL, -20°C, 9 months
  purity of the FP-CIT linear precursor: 94.7%
[2]; THF, 1 mg/mL, room temperature, 0 months (start of storage assumed 100%)
  purity of the FP-CIT linear precursor: 100.0%
[2]; THF, 1 mg/mL, room temperature, 3 months
  purity of the FP-CIT linear precursor: 89.9%
[2]; THF, 1 mg/mL, room temperature, 7 months
  purity of the FP-CIT linear precursor: 56.6%
[2]; THF, 1 mg/mL, room temperature, 9 months
  purity of the FP-CIT linear precursor: 25.6%
[2]; THF, 8 mg/mL, -20°C, 0 months (start of storage assumed 100%)
  purity of the FP-CIT linear precursor: 100.0%
[2]; THF, 8 mg/mL, -20°C, 1 month
  purity of the FP-CIT linear precursor: 98.8%
[2]; THF, 8 mg/mL, -20°C, 3 months
  purity of the FP-CIT linear precursor: 97.5%
[2]; THF, 8 mg/mL, -20°C, 7 months
  purity of the FP-CIT linear precursor: 94.7%
[2]; THF, 8 mg/mL, -20°C, 9 months
  purity of the FP-CIT linear precursor: 94.4%
[2]; THF, 8 mg/mL, -20°C, 12 months
  purity of the FP-CIT linear precursor: 89% and 89.7%
[2]; THF, 8 mg/mL, room temperature, 0 months (start of storage assumed 100%)
  purity of the FP-CIT linear precursor: 100.0%
[2]; THF, 8 mg/mL, room temperature, 3 months
  purity of the FP-CIT linear precursor: 72.9%
[2]; THF, 8 mg/mL, room temperature, 5 months
  purity of the FP-CIT linear precursor: 30% and 30.4%
[2]; THF, 8 mg/mL, room temperature, 7 months
  purity of the FP-CIT linear precursor: 5.5%
[2]; THF, 8 mg/mL, room temperature, 9 months
  purity of the FP-CIT linear precursor: 5.5%
